# Assay: gradient 5% acetonitrile 3 min, to 50% in 2 min, to 85% in 15 min, held 3 min, 100 µL/min
# Conditions: column: Zorbax Extend-C18 2.1 x 50 mm; eluents: water / acetonitrile, 0.1% formic acid
# Procedure, shortened: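 Retention times of pure standards were taken from adduct peaks that were selected by computer and manually inspected. Over 3 months, mixtures of ~100 molecules were run by HPLC–quadrupole time-of-flight mass spectrometry in positive and negative ionization mode. The Zorbax Extend-C18 column (2.1 × 50 mm, 1.8 μm) ran at 100 μL/min in water and acetonitrile, each containing 0.1% formic acid, with 40 μL dead volume and 900 μL dwell volume.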
row,SMILES,RP-LC retention time [s]
1,Cc1ccc(C(C)NC(=O)c2cn3c(n2)COCC3)c(C)c1 (stereo not drawn),667
2,Cc1ccc(NC(=O)N2CCCC(Cn3cnc4cccnc43)C2)cc1 (stereo not drawn),667
3,O=C(Nc1ccccc1Cl)N1CCC(N2CCN(Cc3cccc(F)c3)C(=O)C2=O)CC1,749
4,O=C(CSc1nnc2c3sc(N4CCCC4)nc3ncn12)Nc1ccc(F)cc1,794
5,Cc1nc(C(=O)Nc2cccc(C(F)(F)F)c2)c(C)o1,988
6,CCN1CCCn2cc(S(=O)(=O)NCc3ccccc3C(F)(F)F)cc2C1=O,792
7,COc1ccc(-c2nc3nc(C)cc(C)n3c2Nc2ccc(Cl)cc2)cc1,730
8,O=C(Nc1ccccc1Br)c1cnc(-c2ccccc2)nc1-c1ccncc1,927
9,O=C(NCCNS(=O)(=O)CCOc1ccc(F)cc1)c1ccc(NC(=O)C2CC2)cc1,710
10,CCc1nc(-c2csc(S(=O)(=O)N3CCC(C(=O)NC(C)CC)CC3)c2)no1 (stereo not drawn),854
11,Cc1cc(C)nc(NC(=O)NCCCSc2ccccn2)n1,671
12,CC1CCCN(c2ccc(-c3noc(CN4CCC(C(N)=O)CC4)n3)cn2)C1 (stereo not drawn),589
13,CCOc1ccc(NC(=O)C2=C(C)NC(=O)NC2c2ccc([N+](=O)[O-])cc2)cc1 (stereo not drawn),695
14,O=C(Cc1ccccc1F)N1C[C@H]2CNC(=O)[C@]23CCCC[C@@H]13,683
15,Cc1cc(C)cc(-n2c(SCC(=O)Nc3nc(C)cs3)nc3c(c2=O)SCC3)c1,825
16,N#Cc1ccc(CN2C[C@@H](CO)[C@H](c3ccccn3)C2)cc1,569
17,Cn1cc(-c2ccncc2)cc1C(=O)NCc1ccc(F)c(Cl)c1,664
18,O=c1n(CC2CC2)nc2n1CCC(NS(=O)(=O)c1ccccc1)CC2 (stereo not drawn),706
19,COc1cccc(OC)c1C(=O)Nc1nc2c(s1)CCc1ccccc1-2,1000
20,CS(=O)(=O)N1CCC(OC2CCN(C(=O)NCCc3ccccc3)CC2)CC1,724
21,CCOC(=O)c1ccc(NC(=O)CCc2c(-c3ccc(Cl)cc3)nc3ccccn23)cc1,752
22,Cc1cnc(C2CCC2)n1CCNS(=O)(=O)c1ccccc1,615

row,SMILES,RP-LC retention time [s]
1,COc1ccc(CC(=O)NCC(=O)Nc2nc3ccccc3[nH]2)cc1Cl,636
2,CCOc1ccc(-c2csc(NC(=O)CCCc3nc(-c4ccccc4Cl)no3)n2)cc1,1160
3,COc1cccc(-n2ccc(=O)c(-c3nc(-c4cccc(F)c4)no3)n2)c1,905
4,Cc1ccc(Cl)cc1NC(=O)Cn1c(C)nc2c(sc3nc(-c4ccccc4)ccc32)c1=O,1140
5,O=C(Cn1cnc(-c2ccc(Cl)cc2)cc1=O)NCc1ccccc1OC(F)(F)F,910
6,CC(=O)N1CCc2cc(S(=O)(=O)C(C)CC(=O)N3CCN(c4cccc(Cl)c4)CC3)ccc21 (stereo not drawn),891
7,CCc1nnc(-c2ccc(S(=O)(=O)N3CCN(C4CCCCC4)CC3)o2)o1,637
8,Cc1ccc(-n2cc3c(N4CCCC(C(=O)NCc5ccc(C(F)(F)F)cc5)C4)ncnc3n2)cc1 (stereo not drawn),786
9,CCCOc1ccc(CNC(=O)CN2CCN(Cc3ccc(F)cc3)C2=O)cc1,903
10,CC(C)(C)c1noc(-c2ccc(=O)n(Cc3cccc(F)c3)n2)n1,1050
11,Cc1ccc(S(=O)(=O)c2cnc(N3CCN(c4cccc(Cl)c4)CC3)nc2N)cc1C,1260
12,CNC(=O)C1Cc2ccccc2N1S(=O)(=O)c1cccc(C(F)(F)F)c1 (stereo not drawn),802
13,CCCCC(=O)Nc1cc(C(=O)O)ccc1N(C)CC1COCCO1 (stereo not drawn),756
14,Cc1noc(-c2ccnc(-n3ncc(C(=O)NC4CCCCCC4)c3C)c2)n1,968
15,O=c1n(Cc2cccc(C(F)(F)F)c2)nc2c(S(=O)(=O)N3CCCCCC3)cccn12,1020
16,CC(=O)N1CCc2cc(-c3ccc(C(=O)NCc4ccccn4)cc3)ccc21,584
17,Cc1ccc(C(=O)CC2(O)C(=O)Nc3c(C)cccc32)cc1 (stereo not drawn),748
18,CCCNC(=O)c1cn(-c2cc(-c3nc(C(C)(C)C)no3)ccn2)cn1,934
19,CSc1ncccc1C(=O)Nc1cccc(OCc2nnc(-c3ccc(Cl)cc3)o2)c1,1010
20,Cc1ccc2c(c1)N(C(=O)CSc1ccc(N3CCCC(C(=O)NC4CC4)C3)nn1)CCO2 (stereo not drawn),687
21,COC(=O)c1cc(OCC(=O)NCc2ccc3c(c2)OCO3)c2cc(F)ccc2n1,785
22,CCc1nn2c(CNC(=O)C3CCC3)c(-c3ccccc3)nc2s1,804

# Other lines, results leading:
row,RP-LC retention time [s],SMILES
1,872,Cc1ccc(NC(=O)N2CCCC2c2c(C)noc2C)c(Cl)c1 (stereo not drawn)
2,721,CC(=O)N1CCC2(CC1)OC(=O)C(C)=C2C(=O)NCc1ccccc1Br
3,809,Cc1cc(NC(=O)c2nc3ccccc3s2)sn1
4,631,Cc1ccsc1C(=O)N1CCC(N2C[C@H](O)C[C@H]2C(=O)NC2CCCCC2)CC1
5,745,CCN(CC)C(=O)c1ccc(-c2nnc3ccc(NC(=O)C4CCC4)cn23)cc1
6,685,CCn1c(=O)c(N2CCCC(C(=O)NC3CCN(Cc4ccccc4)CC3)C2)nc2ccccc21 (stereo not drawn)
7,899,CCC(C)NC(=O)c1nccnc1NC(=O)c1ccccc1 (stereo not drawn)
8,639,CC(C(=O)NCCCN1CCN(C2CCCCC2)CC1)n1c(=O)c(C(F)(F)F)nc2ccccc21 (stereo not drawn)
9,819,CCC(=O)N1CCc2c(C(=O)N3CCN(c4cccc(OC)c4)CC3)cccc21
10,817,CC1=C(c2ccc(F)cc2)S(=O)(=O)N=C1N1CCCN(C(=O)c2ccccc2F)CC1
11,951,CCOc1ccc(CCNC(=O)C2CCCN(C(=O)c3cc4sccc4n3CC)C2)cc1OCC (stereo not drawn)
12,586,O=C(Cn1cnc2ccccc21)N1CCN(Cc2nc(-c3ccc(F)cc3)cs2)CC1
13,709,CC(C)(C)OC(=O)Cn1cnc2c(-c3ccc(F)cc3)csc2c1=O
14,794,CCOc1cc(=O)n2c(c1C(=O)Nc1cc(F)cc(F)c1)CCCC2
15,765,Cc1noc2nc(C)n(CC(=O)Nc3ccc(F)cc3)c(=O)c12
16,732,CC(C)CNC(=O)c1ccc(CN2CCN(Cc3ccc(F)cc3)C(=O)C2=O)cc1
17,760,CSc1cccc(NC(=O)N2CC(c3nc(C)no3)C3(CCOCC3)C2)c1 (stereo not drawn)
18,639,CCN(CCNC(=O)C1CCCN(c2ncnc3c2nc2n3CCCCC2)C1)Cc1ccccc1 (stereo not drawn)
19,917,CSc1cccc(NC(=O)N2CCC(C)(C(=O)NCc3ccc(C)cc3)CC2)c1
20,998,Cc1nc2cc(-c3noc(-c4ccc5ccccc5n4)n3)ccc2o1
21,714,N#Cc1cccc(C(=O)N2CCN3CCS(=O)(=O)N(C4CC4)C(=O)C3C2)c1 (stereo not drawn)
22,1170,CCN(CC)S(=O)(=O)c1ccc(Cl)c(-c2nnc(-c3cccc(C)c3)o2)c1

row,RP-LC retention time [s],SMILES
1,767,O=C(Cn1c(=O)nc(NC2CCCC2)c2ccccc21)Nc1cc(F)cc(F)c1
2,845,Cc1nc(CCNS(=O)(=O)c2ccc(Oc3ccccc3)cc2)cs1
3,687,COc1ccc(SCC(=O)Nc2c3c(nn2C)CCC3)cc1
4,647,CCOc1cccc(-c2noc(Cn3ccnc3C)n2)c1
5,872,O=C(Cn1c(=O)c2cc(-c3cccs3)nn2c2ncccc21)Nc1ccc(F)cc1F
6,885,O=C(Cn1c(=O)c2cc(-c3cccs3)nn2c2ncccc21)NCc1ccc(Cl)cc1
7,966,COc1ccc(-c2csc(Nc3ccc(S(=O)(=O)Nc4nc(C)cc(C)n4)cc3)n2)cc1C
8,828,CCc1ccccc1NC(=O)c1ncn2c1C(=O)N(C1CC1)C(C)(C(=O)NC1CCCC1)C2 (stereo not drawn)
9,911,Cc1ccc(N2CC(c3nc(-c4ccc5c(c4)OCO5)no3)CC2=O)cc1C (stereo not drawn)
10,650,CC(C)c1noc(C2Cc3ccccc3N2C(=O)NC2CCCC2)n1 (stereo not drawn)
11,1020,Cc1ccc(C)c(N2CCN(c3ccnc(SCC(=O)Nc4cccc(Cl)c4C)n3)CC2)c1
12,848,CCCc1noc(-c2ccc3nnc(CC(=O)Nc4ccc(F)cc4)n3c2)n1
13,1010,CCc1ccccc1S(=O)(=O)N1CCC(C(=O)NCCc2csc(-c3ccccc3)n2)CC1
14,645,CCc1nc2cc(-c3noc(-c4n[nH]c5ccccc45)n3)ccc2o1
15,918,CCN1C(=O)c2cccnc2Sc2cc(NC(=O)c3cc(C)cc(C)c3)ccc21
16,490,CNc1nccc(N2CCC(CC(=O)NCCCN3CCCC3=O)CC2)n1
17,1110,CCOc1cccc(C2c3[nH]c4ccccc4c3CCN2C(=O)c2cccs2)c1 (stereo not drawn)
18,607,O=C(NCCc1ccccc1)N1CCN(c2cc(-c3ccncc3)[nH]n2)CC1
19,1020,Cc1nnsc1C(=O)Nc1nnc(SCc2ccc(Cl)c(Cl)c2)s1
20,578,CCCc1cc(=O)n(CC(=O)Nc2ncccc2C)cn1
21,734,COc1cc(=O)n2c(c1C(=O)Nc1cccc(SC)c1)CCCC2
22,682,COc1ccc2cc(-c3nc(-c4ccc(S(C)=O)cc4)[nH]c3-c3ccncc3)ccc2c1 (stereo not drawn)

# Source: the METLIN SMRT retention time set (Domingo-Almenara et al. 2019)
